Assay results from PMC8474116, “Discovery of Novel Acetamide-Based Heme Oxygenase-1 Inhibitors with Potent In Vitro Antiproliferative Activity” (Journal of Medicinal Chemistry, 2021).

Experiments:
[1] = Microsomal stability, human liver microsome assay (Eurofins); format: in vitro ADME; conditions: human liver microsomes, protein 0.1 mg/mL
Description: (§1) In vitro ADMET testing has been performed at Eurofins Scientific.

hERG potassium channel = target: T1, hERG potassium channel (Homo sapiens, UniProt Q12809); assay: hERG human potassium ion channel binding (Eurofins)
T1 construct: Eurofins Scientific (contract assay) 4094
T1 sequence (Q12809 whole entry): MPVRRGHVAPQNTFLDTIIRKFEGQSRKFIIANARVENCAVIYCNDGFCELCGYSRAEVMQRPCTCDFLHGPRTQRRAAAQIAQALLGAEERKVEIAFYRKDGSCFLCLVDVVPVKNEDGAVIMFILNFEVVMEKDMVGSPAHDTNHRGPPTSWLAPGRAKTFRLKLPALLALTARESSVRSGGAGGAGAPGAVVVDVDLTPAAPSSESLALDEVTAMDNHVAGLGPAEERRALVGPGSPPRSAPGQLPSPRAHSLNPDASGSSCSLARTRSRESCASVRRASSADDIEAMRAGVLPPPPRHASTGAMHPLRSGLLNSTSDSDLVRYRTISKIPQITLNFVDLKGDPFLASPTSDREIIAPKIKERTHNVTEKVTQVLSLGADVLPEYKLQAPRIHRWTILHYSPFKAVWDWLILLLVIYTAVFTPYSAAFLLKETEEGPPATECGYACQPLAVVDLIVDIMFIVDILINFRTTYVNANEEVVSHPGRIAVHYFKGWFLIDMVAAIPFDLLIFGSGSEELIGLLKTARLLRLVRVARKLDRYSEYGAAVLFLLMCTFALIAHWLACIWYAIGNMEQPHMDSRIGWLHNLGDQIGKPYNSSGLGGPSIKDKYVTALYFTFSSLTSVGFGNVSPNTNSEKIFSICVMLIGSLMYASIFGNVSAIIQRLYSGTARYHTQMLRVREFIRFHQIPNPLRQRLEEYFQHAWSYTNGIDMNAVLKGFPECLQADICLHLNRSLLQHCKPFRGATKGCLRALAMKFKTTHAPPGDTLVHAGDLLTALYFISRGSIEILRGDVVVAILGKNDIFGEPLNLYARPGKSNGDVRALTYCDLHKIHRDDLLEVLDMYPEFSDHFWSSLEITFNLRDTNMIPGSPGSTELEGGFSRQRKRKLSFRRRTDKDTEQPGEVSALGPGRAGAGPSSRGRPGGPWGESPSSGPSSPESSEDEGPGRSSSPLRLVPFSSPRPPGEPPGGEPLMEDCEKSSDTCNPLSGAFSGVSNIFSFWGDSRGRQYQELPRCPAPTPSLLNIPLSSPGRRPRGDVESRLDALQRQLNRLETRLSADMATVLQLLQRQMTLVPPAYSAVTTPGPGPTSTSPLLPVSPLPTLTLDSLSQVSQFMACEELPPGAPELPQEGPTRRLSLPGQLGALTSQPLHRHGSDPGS
Description: as §1

VEGF-A = VEGF-A release in conditioned media, ELISA, U87MG; format: cell-based, human; conditions: 10 μM, 48 h
Procedure: VEGF-A release in conditioned media was measured using the ELISA sandwich enzymatic method with specific anti-VEGF-A (cat. No. ELH-VEGF) antibodies coated on a 96-well plate, according to the manufacturer’s guidelines. Briefly, confluent U87MG cells grown in media supplemented with 1% FBS were treated for 48 h with 10 μM of 7l. Standards and supernatants from samples were pipetted into the wells containing the immobilized VEGF antibody. The wells were then washed before adding a biotinylated antihuman VEGF antibody. Following incubation, the unbound biotinylated antibody was washed off, and HRP-conjugated streptavidin was pipetted in each well. After an additional wash step, a TMB substrate solution was added to each well, resulting in blue coloration proportional to the amount of bound VEGF. Finally, the stop solution was added, and the colorimetric intensity of the blue substrate now turned yellow was measured at 450 nm.

HO-1 [2] = assay: HO-1 immunolocalization (immunofluorescence) in U87MG; format: cell-based, human; conditions: 10 μM, 48 h
Procedure: To determine the cellular distribution of heme oxygenase-1 in tumor cells, immunofluorescence analysis was performed as previously described.[62] Tumor cell lines were cultured on glass coverslips fixed in 4% paraformaldehyde in PBS (15′ at room temperature), permeabilized with 0.2% of Triton X100, blocked with 0.1% of BSA in PBS, and then probed with rabbit HO-1 antibody. […] DNA was counterstained stained with DAPI (#940110, Vector Laboratories). After a series of PBS and double-distilled water washes, the fixed cells were cover-slipped with the Vectashield mounting medium (Vector Laboratories, Inc., Burlingame, CA). Localization of the antibody was performed by Zeiss fluorescent microscopy.

human CYP3A4 = target: T2, human CYP3A4 (Homo sapiens, UniProt P08684); assay: CYP3A4 inhibition (Eurofins); format: in vitro ADME
T2 construct: Eurofins Scientific (contract assay) 391
T2 sequence (P08684 whole entry): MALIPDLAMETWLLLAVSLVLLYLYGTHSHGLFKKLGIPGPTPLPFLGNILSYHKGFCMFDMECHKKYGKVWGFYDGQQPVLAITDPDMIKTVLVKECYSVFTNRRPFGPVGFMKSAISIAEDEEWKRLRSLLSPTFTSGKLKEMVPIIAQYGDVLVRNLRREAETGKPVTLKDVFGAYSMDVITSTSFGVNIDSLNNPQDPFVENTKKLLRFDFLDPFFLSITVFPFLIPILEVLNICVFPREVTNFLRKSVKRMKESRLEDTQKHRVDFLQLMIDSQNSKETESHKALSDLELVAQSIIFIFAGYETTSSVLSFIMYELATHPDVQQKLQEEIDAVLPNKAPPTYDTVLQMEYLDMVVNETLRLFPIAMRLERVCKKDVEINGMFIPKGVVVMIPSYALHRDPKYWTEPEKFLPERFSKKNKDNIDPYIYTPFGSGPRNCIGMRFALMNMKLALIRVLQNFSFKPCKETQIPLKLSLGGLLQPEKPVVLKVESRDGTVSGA
Description: as §1

HO = HO enzymatic activity in U87MG cell line (cell lysate, bilirubin formation); format: cell-based, human; conditions: U87MG treated with 10 μM
Procedure: U87MG cells were incubated for 24 h in the presence or absence of 10 μM of compound 7l. Total HO activity in the cell lysate was determined by measuring the bilirubin formation using the difference in absorbance at 464–530 nm.[2] Reaction mixtures (500 μL) consisted of 20 mM of Tris–HCl, pH 7.4, 1 mg/mL of cell lysate, 0.5–2 mg/mL of biliverdin reductase, 1 mM of NADPH, 2 mM of glucose 6-phosphate (G6P), 1 U of G6P dehydrogenase, 25 μM of hemin, and 10 μL of DMSO. Incubations were carried out for 60 min at 37 °C in a circulating water bath in the dark. Reactions were stopped by adding 1 volume of chloroform. After recovering the chloroform phase, the amount of bilirubin formed was measured with a double-beam spectrophotometer as OD464–530 nm (extinction coefficient, 40 mM/cm for bilirubin). One unit of the enzyme was defined as the amount of enzyme catalyzing the formation of 1 nmol of bilirubin/mg protein/h.

HO-1 [3] = assay: HO-1 protein expression by Western blot, U87MG; format: cell-based, human; conditions: 10 μM, 48 h
Procedure: (§2) Proteins were extracted from total cell lysate, as previously described.[61] Briefly, cell lines were added to a buffer containing 20 mM Tris (pH 7.4), 2 mM EDTA, 0.5 mM EGTA, 50 mM mercaptoethanol, and […] sucrose supplemented with phosphatase and protease inhibitor cocktails (Roche Diagnostics, Monza, Italy). Subsequently, protein samples were sonicated twice for 20′ by using an ultrasonic probe, followed by centrifugation at 10 000g for 10 min at 4 °C. Sample proteins (30 μg) were diluted in 4X NuPage LDS sample buffer (Invitrogen, NP0007), heated at 80 °C for 5 min, and then separated on a Biorad Criterion XT 4–15% Bis–Tris gel (BIO-RAD) by electrophoresis and then transferred to a PVDF membrane (BIO-RAD). Blots were blocked using the Odyssey Blocking Buffer (LI-COR Biosciences) and probed with appropriate antibodies: HO-1 antibody (GeneTex GTX101147), goat polyclonal anti-VEGF (cat. no. sc-1836, Santa Cruz Biotechnology), and rabbit polyclonal anti-β-tubulin (cat n.sc-9104, Santa Cruz Biotechnology) and β-actin antibody (GeneTex GTX109639).
(§3) The secondary antibodies goat antirabbit (Odyssey, #926-32211; Odyssey #926-68021) and donkey antigoat IRDye 800CW (cat #926-32214; Li-Cor Biosciences) were used at 1:7000. Blots were scanned, and densitometric analysis was performed with the Odyssey Infrared Imaging System. Values were normalized to β-actin and to β-tubulin.

A549 cells = assay: MTT cell viability assay, A549; format: cell-based, human; conditions: 48 h, 10 μM
Procedure: Experiments were performed on human GBM cell lines U87MG (ATCCC number #HTB-14) and A172 (ATCCC #CRL-1620) on DU145 (ATCC HTB-81) and human lung adenocarcinoma A549 (ATCC CCL-185-LUC2). All cell lines were obtained from the American Type Culture Collection (ATCC, Rockville, MD). Cells were grown in Dulbecco’s modified Eagle’s medium (DMEM) supplemented with 10% of heat-inactivated fetal bovine serum (FBS), 100 U/mL of penicillin, and 100 μg/mL of streptomycin (Sigma-Aldrich, Steinheim, Germany). Cells were incubated at 37 °C in a humidified atmosphere with 5% CO2.
The effect of selected compounds 7i and 7l–p on cell viability was assessed by performing an MTT assay. Cells were seeded into 96-well plates at a density of 7 × 10^3 cells/well in 100 μL of culture medium. After 24 h, cells were treated with selected compounds at three different concentrations (1 μM, 10 μM, and 50 μM) for 48 h. Following treatments, 0.5 mg/mL of 3-[4,5-dimethylthiazol-2-yl]-2,5-diphenyltetrazolium bromide (MTT) (Sigma-Aldrich) was added to each well and incubated for 4 h at 37 °C. Finally, dimethyl-sulfoxide (DMSO) was used to dissolve formazan salts, and absorbance was measured at 570 nm in a microplate reader (Biotek Synergy-HT). Eight replicate wells were used for each group.

HO-1 [4] = assay: HO-1 protein expression by Western blot, A549; format: cell-based, human; conditions: A549, 10 μM, 48 h
Procedure: as §2, §3

HO-1 [5] = assay: HO-1 protein expression by Western blot, A172; format: cell-based, human; conditions: A172, 10 μM, 48 h
Procedure: as §2, §3

HO-1 [6] = assay: HO-1 protein expression by Western blot, DU145; format: cell-based; conditions: DU145, 10 μM, 48 h
Procedure: as §2, §3

SMILES | microsomal CLint [1] [µL/min/mg] | half-life ([1]; read-out: microsomal stability t1/2) [h] | inhibition at 1 µM (hERG potassium channel) [%] | VEGF release in the culture medium (in words) (VEGF-A) | HO-1 immunoreactivity (in words) (HO-1 [2]) | IC50 (human CYP3A4) [µM] | HO enzymatic activity in cell lysates (in words) (HO) | HO-1 protein expression (in words) (HO-1 [3]) | melting point [°C] | cell viability reduction (in words) (A549 cells) | HO-1 protein expression (in words) (HO-1 [4]) | HO-1 protein expression (in words) (HO-1 [5]) | HO-1 protein expression (in words) (HO-1 [6])
CN(C(=O)Cn1ccnc1)C(c1ccccc1)c1ccc(Cl)cc1 (stereo not drawn) [7l, N-((4-Chlorophenyl)(phenyl)methyl)-2-(1H-imidazol-1-yl)-N-methylacetamide] | 58.3 | 1.98 | 5.7 | significant reduction | reduced the immunoreactivity of HO-1 | 0.18 | reduced HO activity | reduced HO-1 expression | – | – | – | – | –
CN(C(=O)Cn1ccnc1)C(c1ccccc1)c1ccc(OCc2ccccc2)cc1 (stereo not drawn) [7o, N-((4-(Benzyloxy)phenyl)(phenyl)methyl)-2-(1H-imidazol-1-yl)-N-methylacetamide] | – | – | – | – | – | – | – | – | 119 to 121 | weak effect | upregulated its expression | – | –
CN(C(=O)Cn1ccnc1)C(c1ccccc1)c1ccc(I)cc1 (stereo not drawn) [7n, 2-(1H-Imidazol-1-yl)-N-((4-iodophenyl)(phenyl)methyl)-N-methylacetamide] | – | – | – | – | – | – | – | enhanced its levels | 69 to 71 | – | – | enhanced its levels | reduced HO-1 protein expression
